Source: US11040954B1, “CXCR3 receptor agonists” (RECEPTOS LLC, priority 2016, dated 2021)

Molecular target: T1, CXCR3 (Homo sapiens, UniProt P49682)
T1 construct: host or cells: CHO-K1 (cAMP Hunter CHOK1 CXCR3 Gi cell line)
T1 sequence (P49682 1-368): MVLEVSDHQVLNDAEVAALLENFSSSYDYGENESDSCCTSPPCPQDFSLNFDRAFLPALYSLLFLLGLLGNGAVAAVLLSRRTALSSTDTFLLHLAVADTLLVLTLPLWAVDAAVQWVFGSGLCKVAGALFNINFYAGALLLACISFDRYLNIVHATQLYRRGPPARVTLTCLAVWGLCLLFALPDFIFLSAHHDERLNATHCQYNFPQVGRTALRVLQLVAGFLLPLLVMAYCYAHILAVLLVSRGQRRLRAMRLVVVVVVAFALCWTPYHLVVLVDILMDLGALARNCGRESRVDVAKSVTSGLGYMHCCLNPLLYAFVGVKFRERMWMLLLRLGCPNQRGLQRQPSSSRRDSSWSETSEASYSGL
Test: CXCR3 cAMP agonist assay (cAMP Hunter CHOK1 CXCR3 Gi cell line, forskolin-stimulated, HitHunter cAMP detection)
Format: cell-based
Conditions: cAMP Hunter CHOK1 CXCR3 Gi cells, 20 μM forskolin, 30 minutes; read-out: Activity (CXCR3 cAMP agonist assay compound EC50)
How it was run: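 Agonist activity was measured as suppression of forskolin (20 μM)-induced cAMP, read by luminescent enzyme-fragment complementation with a cAMP standard curve and CXCL11 defining full efficacy. Assay used 50,000 CXCR3 Gi CHOK1 cells/well in pH 7.4 HEPES-buffered HBSS with 0.1% BSA, compound 0-10 μM over 12 points, 30 min incubation.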

Question: For `Cc1cc(OC(F)(F)F)c(NC(=O)[C@H](CCN)NC(=O)[C@@H]2Cc3ccccc3CN2C(=O)CCC(=O)c2ccccc2)cc1Cl` [Compound 14-24], which EC50 is on record?
Answer: < 50 nM

Question: With `COc1cc2c(cc1NC(=O)[C@H](CCN)NC(=O)[C@@H]1Cc3ccccc3CN1C(=O)CCC(=O)c1ccccc1)CCC2` [Compound 1-39] as the compound, how does the EC50 read?
Answer: < 50 nM

Question: Which EC50 does the source give for `Cc1cc(NC(=O)[C@H](CCN)NC(=O)[C@@H]2Cc3ccccc3CN2C(=O)CCC(=O)N2CCC(F)CC2)ccc1Cl` [Compound 12-67] here?
Answer: < 50 nM

Question: For `Cc1cc(NC(=O)[C@H](CCN)NC(=O)[C@@H]2Cc3ccccc3CN2C(=O)CCC(=O)N2CC3(CCOCC3)C2)ccc1Cl` [Compound 12-24], which EC50 is on record?
Answer: 250 to 500 nM

Question: For `Cc1cc(NC(=O)[C@H](CCNC2CC2)NC(=O)[C@@H]2Cc3ccccc3CN2C(=O)CCC(=O)c2ccccc2)ccc1Cl` [Compound 16-1, (S)—N—((S)-1-((4-chloro-3-methylphenyl)amino)-4-(cyclopropylamino)-1-oxobutan-2-yl)-2-(4-oxo-4-phenylbutanoyl)-1,2,3,4-tetrahydroisoquinoline-3-carboxamide], which EC50 is on record?
Answer: < 50 nM

Question: For `Cc1cc(NC(=O)[C@H](CCCCN)NC(=O)[C@@H]2Cc3ccccc3CN2C(=O)CCC(=O)c2cccc(Cl)c2)ccc1Cl` [Compound 7-2], which EC50 is on record?
Answer: 50 to 250 nM

Question: How did the EC50 turn out when `NCC[C@H](NC(=O)[C@@H]1Cc2ccccc2CN1C(=O)CCC(=O)c1ccccc1)C(=O)Nc1ccc(Cl)cc1OC(F)(F)F` [Compound 14-23] was run?
Answer: 50 to 250 nM

Question: With `O=C(NC1(C(=O)Nc2ccc(Cl)c(Cl)c2F)CCNCC1)[C@@H]1Cc2ccccc2CN1C(=O)CCC(=O)N1CCCC12CCC2` [Compound 12-136] as the compound, how does the EC50 read?
Answer: < 50 nM

Question: With `COc1c(NC(=O)[C@H](CCN)NC(=O)[C@@H]2Cc3ccccc3CN2C(=O)CCC(=O)c2ccccc2)ccc(C)c1C` [Compound 2-61] as the compound, how does the EC50 read?
Answer: > 500 nM

Question: With `NCC[C@H](NC(=O)[C@@H]1Cc2ccccc2CN1C(=O)CCC(=O)c1ccccc1)C(=O)Nc1ccc2ccccc2c1` [Compound 2-28] as the compound, how does the EC50 read?
Answer: < 50 nM

Question: How did the EC50 turn out when `Cc1cc(NC(=O)[C@H](CCN)NC(=O)[C@@H]2Cc3ccccc3CN2C(=O)CCC(=O)N2CCC(F)(F)C2)ccc1Cl` [Compound 12-8] was run?
Answer: 50 to 250 nM

Question: `NC12CC(CC(NC(=O)[C@@H]3Cc4ccccc4CN3C(=O)CCC(=O)c3ccccc3)C(=O)Nc3ccc(Cl)c(Cl)c3F)(C1)C2` (mixture of isomers) [Compound 22-3] was tested. Which EC50 did it give?
Answer: < 50 nM

Question: For `NCC[C@H](NC(=O)[C@@H]1Cc2ccccc2CN1C(=O)CCC(=O)c1ccccc1)C(=O)Nc1ccc2ccncc2c1` [Compound 2-42], which EC50 is on record?
Answer: > 500 nM

Question: For `COC1CCN(C(=O)CCC(=O)N2Cc3ccccc3C[C@H]2C(=O)N[C@@H](CCN)C(=O)Nc2ccc(Cl)c(C)c2)C1` (stereo partly drawn) [Compound 12-64], which EC50 is on record?
Answer: < 50 nM

Question: `Cc1ccc(NC(=O)[C@H](CCN2CCC(O)CC2)NC(=O)[C@@H]2Cc3ccccc3CN2C(=O)CCC(=O)c2ccccc2)c(F)c1` [Compound 28-3] was tested. Which EC50 did it give?
Answer: 250 to 500 nM

Question: With `Cc1cc(NC(=O)[C@H](CCN2CCC(O)CC2)NC(=O)[C@@H]2Cc3ccccc3CN2C(=O)CCC(=O)c2ccccc2)c(F)cc1Cl` (racemic) [Compound 25-2] as the compound, how does the EC50 read?
Answer: 50 to 250 nM

Question: How did the EC50 turn out when `Cc1cc(C#N)c(NC(=O)[C@H](CCN)NC(=O)[C@@H]2Cc3ccccc3CN2C(=O)CCC(=O)c2ccccc2)cc1Cl` [Compound 35-2] was run?
Answer: < 50 nM

Question: Which EC50 does the source give for `CN(C)CCN(C)C(=O)CCC(=O)N1Cc2ccccc2C[C@H]1C(=O)N[C@@H](CCN)C(=O)Nc1ccc(Cl)c(Cl)c1F` [Compound 15-28] here?
Answer: > 500 nM

Question: Which EC50 does the source give for `Cc1cc(NC(=O)[C@H](CCN)NC(=O)[C@@H]2Cc3ccccc3CN2C(=O)CCC(=O)N2CCCC(F)(F)C2)ccc1Cl` [Compound 12-79] here?
Answer: < 50 nM

Question: `Cc1cc(NC(=O)[C@H](CCN)NC(=O)[C@@H]2Cc3ccccc3CN2C(=O)CCC(=O)N2CCC[C@H]2C(F)F)ccc1Cl` [Compound 12-143] was tested. Which EC50 did it give?
Answer: < 50 nM

Question: Which EC50 does the source give for `COc1cc(C)c(C)cc1NC(=O)[C@H](CCN)NC(=O)[C@@H]1Cc2ccccc2CN1C(=O)CCC(=O)c1ccccc1` [Compound 2-79] here?
Answer: < 50 nM

Question: For `Cc1cc(NC(=O)[C@H](CCN)NC(=O)[C@@H]2Cc3ccccc3CN2C(=O)CCC(=O)N2CC(C)(c3ccccc3)C2)ccc1Cl` [Compound 12-11], which EC50 is on record?
Answer: < 50 nM

Question: For `Cc1ccccc1NC(=O)[C@H](CCCCN)NC(=O)[C@@H]1Cc2ccccc2CN1C(=O)CCC(=O)c1ccccc1` [Compound 1-12], which EC50 is on record?
Answer: 250 to 500 nM

Question: For `Cc1cc(NC(=O)[C@H](CCN)NC(=O)[C@@H]2Cc3ccccc3CN2C(=O)CCC(=O)N2C[C@@H](C)O[C@@H](C)C2)ccc1Cl` [Compound 12-1, (S)—N—((S)-4-amino-1-((4-chloro-3-methylphenyl)amino)-1-oxobutan-2-yl)-2-(4-((2R,6S)-2,6-dimethylmorpholino)-4-oxobutanoyl)-1,2,3,4-tetrahydroisoquinoline-3-carboxamide], which EC50 is on record?
Answer: 50 to 250 nM

Question: Which EC50 does the source give for `Cc1cc(NC(=O)[C@H](CCN)NC(=O)[C@@H]2Cc3ccccc3CN2C(=O)CCC(=O)N(C)Cc2ccccc2)ccc1Cl` [Compound 12-16] here?
Answer: > 500 nM

Question: `Cc1cc(NC(=O)C(NC(=O)[C@@H]2Cc3ccccc3CN2C(=O)CCC(=O)c2ccccc2)C2CC[N+](C)(C)CC2)ccc1Cl` (mixture of isomers) [Compound 6-6] was tested. Which EC50 did it give?
Answer: < 50 nM

Question: How did the EC50 turn out when `CS(=O)(=O)NCC[C@H](NC(=O)[C@@H]1Cc2ccccc2CN1C(=O)CCC(=O)N1CCCCC1)C(=O)Nc1ccc(Cl)c(Cl)c1F` [Compound 32-1, (S)—N—((S)-1-((3,4-dichloro-2-fluorophenyl)amino)-4-(methylsulfonamido)-1-oxobutan-2-yl)-2-(4-oxo-4-(piperidin-1-yl)butanoyl)-1,2,3,4-tetrahydroisoquinoline-3-carboxamide] was run?
Answer: 50 to 250 nM

Question: With `NCCCC[C@H](NC(=O)[C@@H]1Cc2ccccc2CN1C(=O)CCC(=O)c1ccccc1)C(=O)Nc1cccc(F)c1` [Compound 1-8] as the compound, how does the EC50 read?
Answer: > 500 nM

Question: Which EC50 does the source give for `Cc1cc(NC(=O)[C@H](CCNCC(F)(F)F)NC(=O)[C@@H]2Cc3ccccc3CN2C(=O)CCC(=O)c2ccccc2)ccc1Cl` [Compound 8-6] here?
Answer: 50 to 250 nM

Question: `Cc1cc(NC(=O)[C@H](CCN)NC(=O)[C@@H]2Cc3ccccc3CN2C(=O)CCC(=O)N2CC3CC(C3)C2)ccc1Cl` [Compound 12-66] was tested. Which EC50 did it give?
Answer: < 50 nM

Question: How did the EC50 turn out when `CC[C@@H]1CCCN1C(=O)CCC(=O)N1Cc2ccccc2C[C@H]1C(=O)N[C@@H](CCN)C(=O)Nc1ccc(Cl)c(C)c1` [Compound 12-65] was run?
Answer: < 50 nM

Question: `Cc1cc(NC(=O)[C@H](CCN)NC(=O)[C@@H]2Cc3ccccc3CN2C(=O)CCC(=O)N2CCC[C@H]2c2ccccc2)ccc1Cl` [Compound 12-147] was tested. Which EC50 did it give?
Answer: < 50 nM

Question: Which EC50 does the source give for `Cc1cc(NC(=O)[C@H](CCN)NC(=O)[C@@H]2Cc3ccccc3CN2C(=O)CCC(=O)N2CCCCCC2)ccc1Cl` [Compound 12-13] here?
Answer: < 50 nM

Question: `Cc1cc(NC(=O)[C@H](CCN)NC(=O)[C@@H]2Cc3ccccc3CN2C(=O)CCC(=O)N2CCCCC2(C)C)ccc1Cl` [Compound 12-26] was tested. Which EC50 did it give?
Answer: < 50 nM

Question: Which EC50 does the source give for `Cc1cc(NC(=O)[C@H](CCN)NC(=O)[C@@H]2Cc3ccccc3CN2C(=O)CCC(=O)N(C)CC(F)(F)F)ccc1Cl` [Compound 12-119] here?
Answer: 250 to 500 nM

Question: With `NCCCC[C@H](NC(=O)[C@@H]1Cc2ccccc2CN1C(=O)CCC(=O)c1ccccc1)C(=O)Nc1ccc(Cl)c(Cl)c1` [Compound 1-1, (S)—N—((S)-6-amino-1-((3,4-dichlorophenyl)amino)-1-oxohexan-2-yl)-2-(4-oxo-4-phenylbutanoyl)-1,2,3,4-tetrahydroisoquinoline-3-carboxamide] as the compound, how does the EC50 read?
Answer: 50 to 250 nM

Question: Which EC50 does the source give for `NCC[C@H](NC(=O)[C@@H]1Cc2ccccc2CN1C(=O)CCC(=O)N1CCC[C@H]1c1ccccc1)C(=O)Nc1ccc(Cl)c(Cl)c1F` [Compound 12-149] here?
Answer: < 50 nM

Question: With `Cc1cc(C(=O)CCC(=O)N2Cc3ccccc3C[C@H]2C(=O)N[C@@H](CCCCN)C(=O)Nc2ccc(Cl)c(C)c2)ccc1F` [Compound 7-3] as the compound, how does the EC50 read?
Answer: 50 to 250 nM

Question: `Cc1cc(NC(=O)[C@H](CCN)NC(=O)[C@@H]2Cc3ccccc3CN2C(=O)CCC(=O)N2CC(N(C)C)C2)ccc1Cl` [Compound 12-133] was tested. Which EC50 did it give?
Answer: 50 to 250 nM

Question: With `Cc1cc(NC(=O)[C@H](CCN)NC(=O)[C@@H]2Cc3ccccc3CN2C(=O)CCC(=O)N2C(C)CCC2C)ccc1Cl` (stereo partly drawn) [Compound 12-47] as the compound, how does the EC50 read?
Answer: < 50 nM

Question: With `Cc1cc(NC(=O)[C@H](CCN)NC(=O)[C@@H]2Cc3ccccc3CN2C(=O)CCC(=O)N2CCC(C#N)C2)ccc1Cl` (stereo partly drawn) [Compound 12-70] as the compound, how does the EC50 read?
Answer: 50 to 250 nM

Question: How did the EC50 turn out when `Cc1ccc(NC(=O)[C@H](CCCCN)NC(=O)[C@@H]2Cc3ccccc3CN2C(=O)CCC(=O)c2ccccc2)cc1C(F)(F)F` [Compound 1-30] was run?
Answer: < 50 nM

Question: With `Cc1cc(NC(=O)[C@H](CCN)NC(=O)[C@@H]2Cc3ccccc3CN2C(=O)CCC(=O)N2CCN3CCC[C@@H]3C2)ccc1Cl` [Compound 12-110] as the compound, how does the EC50 read?
Answer: < 50 nM

Question: With `Cc1cc(NC(=O)[C@H](CCN)NC(=O)[C@@H]2Cc3ccccc3CN2C(=O)CCC(=O)N2CCN(C)[C@@H](C)C2)ccc1Cl` [Compound 12-36] as the compound, how does the EC50 read?
Answer: < 50 nM

Question: `Cc1cc(NC(=O)[C@H](CCN2CCOCC2)NC(=O)[C@@H]2Cc3ccccc3CN2C(=O)CCC(=O)c2ccccc2)ccc1Cl` [Compound 5-4] was tested. Which EC50 did it give?
Answer: 50 to 250 nM

Question: With `Cc1cc(NC(=O)[C@H](CCN)NC(=O)[C@@H]2Cc3ccccc3CN2C(=O)CCC(=O)NC2CC2(F)F)ccc1Cl` (stereo partly drawn) [Compound 12-82] as the compound, how does the EC50 read?
Answer: 250 to 500 nM

Question: Which EC50 does the source give for `CC1(C)CCCN(C(=O)CCC(=O)N2Cc3ccccc3C[C@H]2C(=O)NC2(C(=O)Nc3ccc(Cl)c(Cl)c3F)CCNCC2)C1` [Compound 12-130] here?
Answer: < 50 nM

Question: With `CN(C(=O)CCC(=O)N1Cc2ccccc2C[C@H]1C(=O)N[C@@H](CCN)C(=O)Nc1ccc(Cl)c(Cl)c1F)C1CCC1` [Compound 15-37] as the compound, how does the EC50 read?
Answer: 50 to 250 nM
